# From patent publication US10328051B2, “Proline or proline derivatives for the treatment of dementia” (priority 2014, dated 2019)
# “Also recorded” adds a separate entry of the source.
# What was measured:
# [1] = Tissue distribution and pharmacokinetics of single dose of radiolabelled 3H-CHP in mice (Study IPSS C053); format: in vivo; settings: single dose 3H-CHP
# Source text: Example 1: Tissue Distribution and Pharmacokinetic Study with CHP Study “Clinical Study in Mice on the Tissue Distribution and Pharmacokinetics of Single Dose of the Radiolabelled ^3H-CHP-Study No.: IPSS C053”—(FIG. 1). This Study has been Designed and Performed According to this Invention
# 1. Determination of ^3H-CHP distribution in 25 tissues, remaining carcass and whole blood over time.
# 2. Determination of pharmacokinetic parameters of CHP.
# 3. Comparison of intravenous (IV), and oral routes of administration.
# ^3H-CHP Labelling • CHP was labelled on the 4-prime position using tritium. • The scintillation counting technique detects the tritium atom. • Therefore the counting technique detects CHP and some metabolites which incorporate the tritium. […] They were selected using inclusion and exclusion criteria, and were therefore highly standardised.
# Dosing Regimen • 48 animals were each administered 50 μCi ^3H-CHP at the start of the experiment. This was termed time zero (00:00 hrs). • 27 mice were dosed via the intravenous (IV) route. • 21 mice were dosed via the oral route. • Six (6) animals were not administered with CHP. They form two control groups of 3 mice each.
# Data Collection • 3 mice were sacrificed following the SOP for anesthesia and according to the following time intervals
# Sample Collection • From each sacrificed mouse, the following samples were taken: • Whole BloodEyes & Harderian GlandsKidneys & Adrenal GlandsAortaLiverLungSpleenUrinary BladderBone & Bone MarrowCaecumSmall IntestineLarge IntestineLymph Nodes (Mesenteric) Muscle, PancreasBrain & Pituitary GlandBrown FatSubcutaneous FatHeartThymousBoth TestesProstateSkinStomachThyroidSalivary GlandsRemaining CarcassUrine (collected if possible: in practise this was rare)
# The remaining carcass sample consisted of the rest after removal of whole blood and the other tissues. Any material cleaned from other tissues listed above was also included. The collected remainings were homogenised before analysis.
# hepatic fibrosis = assay: Phase II clinical study IPSS-B025: anti-fibrotic efficacy in chronic liver diseases; format: in vivo, human
# Source text: Title: Phase II—CHP in patients with chronic viral hepatitis, chronic alcohol liver diseases without cirrhosis or primary sclerosing cholangitis 45 patients—Study IPSS-B025 (Example 12.4).
smiles,measurement,setting,value
"O=C(O)[C@@H]1C[C@H](O)CN1 [CHP, cis-4-hydroxy-L-proline]",Maximal concentration in the brain following oral administration in comparison to the intravenous application,[1],approximately 48%
same,Crossing of the blood-brain barrier,[1]; concentration observed in brain & pituitary gland,can cross the blood-brain barrier
same,Anti-fibrotic efficacy in patients suffering from chronic liver diseases,hepatic fibrosis,inhibited the hepatic fibrosis; also recorded: antifibrotic efficacy; also recorded: anti-fibrotic efficacy; also recorded: anti-fibrotic activities
